Tests used:
[1] = cited from earlier work
[2] = X-Ray Powder Diffraction (XRPD); type: physicochemical; conditions: FIGS. 5A-5D
Method: X-Ray Powder Diffraction. With reference to FIGS. 5A-5D, XRPD was performed using the Rigaku Smart-Lab X-ray diffraction system configured for reflection Bragg-Brentano geometry using a line source X-ray beam. The X-ray source is a Cu Long Fine Focus tube that was operated at 40 kV and 44 mA. That source provides an incident beam profile at the sample that changes from a narrow line at high angles to a broad rectangle at low angles. Beam conditioning slits were used on the line X-ray source to ensure that the maximum beam size is less than 10 mm both along the line and normal to the line. The Bragg-Brentano geometry is a para-focusing geometry controlled by passive divergence and receiving slits with the sample itself acting as the focusing component for the optics. The inherent resolution of Bragg-Brentano geometry is governed in part by the diffractometer radius and the width of the receiving slit used. Typically, the Rigaku Smart-Lab is operated to give peak widths of 0.1° 2θ or less. The axial divergence of the X-ray beam is controlled by 5.0-degree Soller slits in both the incident and diffracted beam paths. […] The samples were analyzed from 2 to 40° 2θ using a continuous scan of 6° 2θ per minute with an effective step size of 0.02° 2θ.

| SMILES | liver enzyme induction ([1]; Nayyar et al., 2012) | serum calcium and folate ([1]; patients treated with Pheneturide) | solid form by XRPD [2] |
| --- | --- | --- | --- |
| CCC(C(=O)NC(N)=O)c1ccccc1 (stereo not drawn) [Pheneturide, phenylethylacetylurea] | potent liver enzyme inducer | low levels | – |
| CCC1(c2ccccc2)C(=O)N=C([O-])NC1=O.[Na+] (stereo not drawn) [USP grade P API, sodium 5-ethyl-4,6-dioxo-5-phenyl-1H-pyrimidin-2-olate] | – | – | polymorphous |
